In paper PMC6842059 (ChemMedChem, 2019):

Legend:
[1] = tested on: MT-2 cells
[2] = in vitro; conditions: human

| SMILES | selectivity index (CC50/IC50) [1] | CC50 [2] [µM] |
| --- | --- | --- |
| CC(C)CN(C[C@@H](O)[C@H](Cc1ccccc1)NC(=O)O[C@H]1CO[C@H]2OCC[C@H]21)S(=O)(=O)c1ccc(B(O)O)cc1 [Inhibitor 5, (4-(N-((2R,3S)-3-(((((3R,3aS,6aR)-hexahydrofuro[2,3-b]furan-3-yl)oxy)carbonyl)amino)-2-hydroxy-4-phenylbutyl)-N-isobutylsulfamoyl)phenyl)boronic acid] | > 2,040 | > 100 |
| CC(C)CN(C[C@@H](O)[C@H](Cc1ccccc1)NC(=O)O[C@H]1C2CO[C@H]3OC[C@@H]1C3C2)S(=O)(=O)c1ccc(B(O)O)cc1 (stereo partly drawn) [Inhibitor 6, (4-(N-((2R,3S)-3-(((((3S,7aS,8S)-Hexahydro-4H-3,5-methanofuro[2,3-b]pyran-8-yl)oxy)carbonyl)amino)-2-hydroxy-4-phenylbutyl)-N-isobutylsulfamoyl)phenyl)boronic acid] | > 2,650 | > 100 |
